Experimental data as given in US20100267784A1, “NOVEL 4,5-DIHYDROISOXAZOLES WITH ESTROGENIC ACTIVITY” (priority 2007, published 2010).

Tests used:
Assay type in all cases: cell-based
[1] = target: T1, ERα (Homo sapiens, UniProt P03372); assay: ERα reporter (luciferase) transactivation assay in transfected HEK293 cells; set-up: expressed in transfected cells; host or cells: HEK293; conditions: sample concentration 10 μM, 24 hours, mean of at least three independent transfections
T1 sequence (P03372 1-595): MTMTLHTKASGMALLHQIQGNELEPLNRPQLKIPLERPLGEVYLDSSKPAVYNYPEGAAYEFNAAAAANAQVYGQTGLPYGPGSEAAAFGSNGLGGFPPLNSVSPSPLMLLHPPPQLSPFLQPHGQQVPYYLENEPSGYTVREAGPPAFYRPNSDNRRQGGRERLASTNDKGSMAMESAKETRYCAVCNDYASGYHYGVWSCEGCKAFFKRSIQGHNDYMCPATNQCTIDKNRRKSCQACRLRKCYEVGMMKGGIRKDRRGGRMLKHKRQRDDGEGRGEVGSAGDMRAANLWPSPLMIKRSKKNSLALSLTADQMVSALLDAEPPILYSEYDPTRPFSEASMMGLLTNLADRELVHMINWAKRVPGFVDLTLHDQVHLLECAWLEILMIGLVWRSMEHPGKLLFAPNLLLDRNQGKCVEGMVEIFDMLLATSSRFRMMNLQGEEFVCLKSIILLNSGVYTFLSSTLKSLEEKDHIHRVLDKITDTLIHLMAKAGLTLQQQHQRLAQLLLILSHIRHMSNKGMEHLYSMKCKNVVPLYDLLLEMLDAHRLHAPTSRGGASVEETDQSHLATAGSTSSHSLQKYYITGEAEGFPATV
How it was run: (§1)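 Compounds at 10 μM (or 0.1% vehicle) were applied for 24 hours to HEK293 cells previously transfected with an ERα or ERβ expression plasmid plus ERE-luciferase reporter and β-gal control. Lysate luciferase and β-galactosidase activities were read. Cells were grown in phenol-free, delipidated-serum medium; data are means ±SEM from at least three independent transfections.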

[2] = target: ERβ (Homo sapiens, UniProt Q92731); assay: ERβ reporter (luciferase) transactivation assay in transfected HEK293 cells; set-up: expressed in transfected cells; host or cells: HEK293; conditions: sample concentration 10 μM, 24 hours, mean of at least three independent transfections
Sequence of ERβ (Q92731 whole entry): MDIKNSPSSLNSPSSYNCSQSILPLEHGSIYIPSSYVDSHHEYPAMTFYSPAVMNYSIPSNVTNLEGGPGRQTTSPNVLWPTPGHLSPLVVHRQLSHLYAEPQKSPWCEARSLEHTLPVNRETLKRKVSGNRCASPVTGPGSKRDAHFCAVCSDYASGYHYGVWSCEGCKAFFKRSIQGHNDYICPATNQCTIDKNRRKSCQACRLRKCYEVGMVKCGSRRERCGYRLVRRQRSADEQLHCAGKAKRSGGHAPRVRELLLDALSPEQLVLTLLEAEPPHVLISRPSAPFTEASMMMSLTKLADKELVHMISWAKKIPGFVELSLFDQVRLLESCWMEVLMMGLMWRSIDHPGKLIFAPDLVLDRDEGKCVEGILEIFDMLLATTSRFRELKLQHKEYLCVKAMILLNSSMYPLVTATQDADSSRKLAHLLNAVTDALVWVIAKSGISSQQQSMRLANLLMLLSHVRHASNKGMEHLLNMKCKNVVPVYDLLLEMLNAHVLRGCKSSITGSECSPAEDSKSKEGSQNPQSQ
How it was run: as §1

[3] = target: T1, ERα; assay: ERα antagonism reporter (luciferase) assay in transfected COS-1 cells; set-up: expressed in transfected cells; host or cells: COS-1; conditions: sample concentration 10 μM with 100 nM E2, complete antagonism corresponding to 5.7, 18 hours
Method: Determination of the Antiestrogen Activity of the Compounds.
One day before transfection, COS-1 cells were seeded into 1 ml of DMEM (Dulbecco's modified Eagle medium, Gibco) with 10% delipidated fetal bovine serum and 0,25% (vol/vol) Penicillin-Streptomysin (Euroclone) at a density of 70×10^3 cells/well. […] After transfection, the cells received treatment with test compounds giving a final concentration of 10 μM for each compound. In the antagonist test the wells were also treated with 10^−7 M estradiol. After 18 hours, the cells were washed, lysed and assayed for luciferase and normalization for β-galactosidase activities and protein concentrations. The cells were washed with 100 μl of cold phosphate buffered saline (PBS), lysed with 35 μl 1× Reporter lysis Buffer (Promega) and frosted (−70° C.) for 30 minutes. Cell lysates were placed in 1.5 ml of propylene centrifuge tubes and centrifuged with 13200 g for 5 min in room temperature. For β-galactosidase assay 10 μl of supernatant from each cell extract was transferred to a 96-well plate (96 well Elisa Microplates, PS, Microcon) and incubated for 10 min at 37° C. with 65 μl of reaction mixture consisting 0.76 gl 100×Mg-buffer, 12.5 μl ONPG (4 mg/ml), and 54.3 μl of sodium-phosphate buffer (pH 7). The reaction was stopped with treatment of 125 μl Na2CO3. […] For the study of protein concentrations 5 μl of the supernatant was transferred to a 96-well plate (96 well Elisa Microplates, PS, Microcon) and mixed with 200 μl of 1× Bio-rad protein assay reagent. The luciferase activities were measured with Thermo Luminoscan Ascent scanner and the protein concentrations and β-galactosidase activities with Thermo Labsystem Multiscan Ex scanner. Also blank and control samples were measured. During the maintenance, transfection, and treatment with tested compounds the cells were incubated in humidified atmosphere with 5% carbon dioxide at 37° C.

SMILES	ERα receptor activation relative to 10 nM E2 corresponding 100 [1] [%]	ERβ receptor activation relative to 10 nM E2 corresponding 100 [2] [%]	ERα receptor antagonism relative to 100 nM E2 corresponding 100 [3]
Oc1ccc(CC2=NOC(c3ccccc3)C2)cc1 (single isomer, unassigned) [84a, 3-(4-Hydroxy-benzyl)-5-phenyl-4,5-dihydro-isoxazole]	4.8	0.2	93.6
Oc1ccc(CC2=NOC(c3ccccc3)C2)cc1 (single isomer, unassigned) [84b, 3-(4-Hydroxy-benzyl)-5-phenyl-4,5-dihydro-isoxazole]	7.6	18.5	64.5
CC1(c2ccccc2)CC(CCc2ccccc2O)=NO1 (single isomer, unassigned) [85a, 3-[2-(2-Hydroxy-phenyl)-ethyl]-5-methyl-5-phenyl-4,5-dihydro-isoxazole]	11.8	−0.4	95.6
CC1(c2ccccc2)CC(CCc2ccccc2O)=NO1 (single isomer, unassigned) [85b, 3-[2-(2-Hydroxy-phenyl)-ethyl]-5-methyl-5-phenyl-4,5-dihydro-isoxazole]	21.7	30.0	57.9
CC1(c2ccccc2)CC(CCc2cccc(O)c2)=NO1 (single isomer, unassigned) [86a, 3-[2-(3-Hydroxy-phenyl)-ethyl]-5-methyl-5-phenyl-4,5-dihydro-isoxazole]	21.6	0.5	87.3
CC1(c2ccccc2)CC(CCc2cccc(O)c2)=NO1 (single isomer, unassigned) [86b, 3-[2-(3-Hydroxy-phenyl)-ethyl]-5-methyl-5-phenyl-4,5-dihydro-isoxazole]	7.1	−2.9	101.8
CC1(c2ccccc2)CC(CCc2ccc(O)cc2)=NO1 (single isomer, unassigned) [87a, 3-[2-(4-Hydroxy-phenyl)-ethyl]-5-methyl-5-phenyl-4,5-dihydro-isoxazole]	39.7	18.0	63.1
CC1(c2ccccc2)CC(CCc2ccc(O)cc2)=NO1 (single isomer, unassigned) [87b, 3-[2-(4-Hydroxy-phenyl)-ethyl]-5-methyl-5-phenyl-4,5-dihydro-isoxazole]	18.7	37.4	55.0
Oc1ccc(CCCC2=NOC(Cc3ccccc3)C2)cc1O (single isomer, unassigned) [102a, 5-Benzyl-3-[3-(3,4-dihydroxy-phenyl)-propyl]-4,5-dihydro-isoxazole]	0.3	1.3	115.2
Oc1ccc(CCCC2=NOC(Cc3ccccc3)C2)cc1O (single isomer, unassigned) [102b, 5-Benzyl-3-[3-(3,4-dihydroxy-phenyl)-propyl]-4,5-dihydro-isoxazole]	2.1	−1.3	104.8
Oc1ccc(CCCC2=NOC(Cc3ccccc3)C2)cc1 (centres unmarked) [99ab, 5-Benzyl-3-[3-(4-hydroxy-phenyl)-propyl]-4,5-dihydro-isoxazole]	–	–	132.9
Oc1ccc(CCCC2=NOC(Cc3ccc(O)cc3)C2)cc1 (centres unmarked) [101ab, 5-(4-Hydroxy-benzyl)-3-[3-(4-hydroxy-phenyl)-propyl]-4,5-dihydro-isoxazole]	–	–	39.4
